PubChem BioAssay (NCI)
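The compound was tested at five concentrations on cells cultured in 96-well plates, with a 48-hour exposure period. TGI marks complete inhibition of growth.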

Assays:
Assay in all cases: DTP human tumour cell line panel, 48 h
OVCAR-5 ovarian = system: OVCAR-5 ovarian
OVCAR-4 ovarian = system: OVCAR-4 ovarian
A549 NSCLC = system: A549 NSCLC
UO-31 renal = system: UO-31 renal
KM12 colon = system: KM12 colon
ACHN renal = system: ACHN renal
SK-MEL-28 melanoma = system: SK-MEL-28 melanoma
SK-MEL-2 melanoma = system: SK-MEL-2 melanoma
T-47D breast = system: T-47D breast
HS 578T breast = system: HS 578T breast

Row | SMILES | TGI (OVCAR-5 ovarian) | TGI (OVCAR-4 ovarian) | TGI (A549 NSCLC) | TGI (UO-31 renal) | TGI (KM12 colon) | TGI (ACHN renal) | TGI (SK-MEL-28 melanoma) | TGI (SK-MEL-2 melanoma) | TGI (T-47D breast) | TGI (HS 578T breast)
1 | COC(=O)C1=C(C)NC(C)=C(C(=O)OC)C1c1nc2sccn2c1[N+](=O)[O-] | > 100 µM | > 100 µM | > 100 µM | > 100 µM | > 100 µM | > 100 µM | > 100 µM | > 100 µM | > 100 µM | > 100 µM
2 | Nc1ccc(S(=O)(=O)Nc2nccs2)cc1 | > 100 µM | > 100 µM | > 100 µM | > 100 µM | > 100 µM | > 100 µM | > 100 µM | > 100 µM | > 100 µM | –
3 | S=C(Nc1ccc2c(c1)oc1ccccc12)c1cccnc1 | > 100 µM | > 100 µM | > 100 µM | > 100 µM | > 100 µM | > 100 µM | > 100 µM | > 100 µM | > 100 µM | –
4 | C=C1CN2CC(=C)CN(C1)CS(=O)(=O)N1CC(=C)CN(CC(=C)C1)S(=O)(=O)N1CC(=C)CN(CC(=C)C1)S(=O)(=O)C2 | > 100 µM | > 100 µM | > 100 µM | > 100 µM | > 100 µM | > 100 µM | 45.6 µM | > 100 µM | – | 86.1 µM
5 | CC(C)NC(=O)OCCN=c1c2ccccc2ccc2ccccc12 | > 100 µM | > 100 µM | > 100 µM | 64.4 µM | > 100 µM | > 100 µM | > 100 µM | 73.4 µM | 67.6 µM | > 100 µM
6 | CN(C)c1ccc(C2SCC(=O)N2c2ccc(Oc3ccc(Cl)cc3)c(Cl)c2)cc1 (stereo not drawn) | 87.7 µM | 69 µM | 60.3 µM | 29.6 µM | 40.9 µM | > 100 µM | > 100 µM | 54.1 µM | 61 µM | 40.4 µM
7 | C=CCOc1ccc(C2C(C(=O)OCC)C(=O)CC(C)(O)C2C(=O)OCC)cc1OC (stereo not drawn) | > 100 µM | > 100 µM | > 100 µM | > 100 µM | > 100 µM | > 100 µM | > 100 µM | > 100 µM | > 100 µM | > 100 µM
8 | Cc1cc(S(=O)(=O)Nc2nc3cc(-c4ccc(Cl)cc4)sc3c(=O)n2N)c(S)cc1Cl | > 100 µM | > 100 µM | > 100 µM | > 100 µM | > 100 µM | 98.7 µM | > 100 µM | > 100 µM | > 100 µM | > 100 µM
9 | Nc1ccc(C(=O)N2CCC[C@H]2CO)c(N)c1 | > 100 µM | > 100 µM | > 100 µM | > 100 µM | > 100 µM | > 100 µM | > 100 µM | > 100 µM | > 100 µM | > 100 µM
10 | CCOC(=O)c1ccc(C)c(N=NN(C)C)c1 | > 100 µM | > 100 µM | > 100 µM | > 100 µM | > 100 µM | > 100 µM | > 100 µM | > 100 µM | – | –
11 | COC(=O)C1CCCN1C(=O)C(Cc1cn(S(=O)(=O)c2ccc(C)cc2)cn1)NC(=O)OC(C)(C)C (stereo not drawn) | > 100 µM | – | > 100 µM | > 100 µM | > 100 µM | > 100 µM | > 100 µM | > 100 µM | – | > 100 µM
12 | CSc1cnc2ccccc2c1SC1CN(Cc2ccccc2)c2ccccc2C1=O (stereo not drawn) | > 100 µM | > 100 µM | > 100 µM | > 100 µM | > 100 µM | > 100 µM | > 100 µM | > 100 µM | > 100 µM | –
13 | Nc1ccn(C2OC(CO)C(O)C2O)c(=O)c1 (stereo not drawn) | – | > 625 µM | > 625 µM | > 625 µM | > 625 µM | – | > 625 µM | – | – | –
14 | CC1=NNC(=O)C1C(CC(=O)c1c[nH]c2ccccc12)C(=O)O (stereo not drawn) | > 100 µM | – | > 100 µM | > 100 µM | > 100 µM | > 100 µM | > 100 µM | > 100 µM | > 100 µM | > 100 µM
15 | Cc1ccc(S(=O)(=O)C(C#N)c2nc3ccccc3nc2-n2ccnc2)cc1 (stereo not drawn) | > 100 µM | > 100 µM | > 100 µM | > 100 µM | > 100 µM | > 100 µM | > 100 µM | > 100 µM | – | –
16 | CN1COCc2c1ccc1cc3ccc4c(c3nc21)COCN4S(C)(=O)=O | > 100 µM | > 100 µM | > 100 µM | > 100 µM | > 100 µM | > 100 µM | > 100 µM | – | > 100 µM | > 100 µM
17 | COc1ccc(C2COc3cc(O)c(O)cc3C2)cc1 (stereo not drawn) | 264 µM | 45.6 µM | 188 µM | 279 µM | 164 µM | – | 32.9 µM | 146 µM | – | –
18 | CC(C)CC(O)P(=O)(O)O (stereo not drawn) | > 100 µM | > 100 µM | > 100 µM | > 100 µM | > 100 µM | > 100 µM | > 100 µM | > 100 µM | > 100 µM | –
19 | CCNC(=O)Nc1cccc(NC(=O)NCC)n1 | > 100 µM | > 100 µM | > 100 µM | > 100 µM | > 100 µM | > 100 µM | > 100 µM | – | > 100 µM | > 100 µM
20 | CCC(=O)ONC(=O)Cn1ccc([N+](=O)[O-])n1 | > 100 µM | – | > 100 µM | > 100 µM | > 100 µM | > 100 µM | > 100 µM | – | – | > 100 µM
21 | Cc1ccc(O)c(-c2cscn2)c1 | > 100 µM | > 100 µM | > 100 µM | > 100 µM | – | > 100 µM | – | > 100 µM | – | > 100 µM
22 | CCOc1ccc(/C=C2/C(=O)N=C(NC(C)=O)N2C)cc1 | > 100 µM | > 100 µM | > 100 µM | > 100 µM | > 100 µM | > 100 µM | > 100 µM | > 100 µM | > 100 µM | –
23 | CSc1ncnc2c1ncn2CCC#N | > 100 µM | > 100 µM | > 100 µM | > 100 µM | > 100 µM | > 100 µM | > 100 µM | – | – | > 100 µM
24 | Nc1[nH]nc2nc3ccc(C(F)(F)F)cc3nc12 | 99.2 µM | > 100 µM | > 100 µM | 49.9 µM | > 100 µM | > 100 µM | 42.6 µM | 84.3 µM | – | > 100 µM
